# Data taken from patent US20060166985A1, “Pyrrolydin-2-one derivatives as inhibitors of thrombin and factor xa” (priority 2002, published 2006).
# Molecular target: human Thrombin (Homo sapiens, UniProt P00734)
# Assay: In vitro assay for inhibition of Thrombin (chromogenic or fluorogenic assay)
# Type: biochemical
# Details: Example 2 chromogenic assay, other Examples fluorogenic assay, read-out: thrombin inhibitory Ki
# Method: Thrombin inhibitory activity is measured by the ability to inhibit human α-thrombin in a chromogenic assay using N-p-tosyl-gly-pro-lys p-nitroanilide as the chromogenic substrate, or in a fluorogenic assay using Rhodamine 110, bis-(CBZ-L-valyl-L-prolyl-L-arginine amide) as the fluorogenic substrate.
# The compound was diluted from a 10 mM stock solution in dimethylsulfoxide at appropriate concentrations. Assay was performed at room temperature using buffer consisting of: 50 mM HEPES, 150 mM NaCl, 5 mM CaCl2, 0.1% PEG, pH 7.4. containing human Thrombin (final conc. of 1 nM). Compound and enzyme were preincubated for 15 min prior to addition of the substrate (final conc. of 100 μM). The reaction was stopped after 30 min with the addition of soybean trypsin inhibitor or H-D-PHE-PRO-ARG-Chloromethylketone. […] To obtain IC50 values the data were analysed using ActivityBase® and XLfit®.
# Compounds were diluted from a 10 mM stock solution in dimethylsulfoxide at appropriate concentrations. Assay was performed at room temperature using buffer consisting of: 50 mM HEPES, 150 mM NaCl, 5 mM CaCl2, 0.1% PEG, pH 7.4. containing human Thrombin (final conc. Of 0.2 nM). Compound and enzyme were preincubated for 15 min prior to addition of the substrate (final conc. of 10 μM). The reaction was stopped after 3 hrs with the addition of H-D-PHE-PRO-ARG-Chloromethylketone. […] To obtain IC50 values the data were analysed using ActivityBase® and XLfit®.
row,Ki [nM],Structure (SMILES)
1,< 25,"CC[C@H](C)[C@@H](C(=O)N1CCOCC1)N1CC[C@H](NS(=O)(=O)CCc2ccc(Br)cc2)C1=O [Example 12, 2-(4-bromophenyl)-N-{(3S)-1-[(1S,2S)-2-methyl-1-(morpholin 4-ylcarbonyl)butyl]-2-oxopyrrolidin-3-yl}ethanesulfonamide]"
2,< 200,O=C(C[C@@H](C(=O)N1CCOCC1)N1CC[C@H](NS(=O)(=O)CCc2ccc(Cl)s2)C1=O)N1CCOCC1 [Example 31]
3,< 25,"C/C(=C\S(=O)(=O)N[C@H]1CCN([C@@H](C)C(=O)N2CCOCC2)C1=O)c1ccc(Cl)cc1 [Example 3, (1E)-2-(4-chlorophenyl)-N-{(3S)-1-[(1S)-1-methyl-2-morpholin-4-yl-2-oxoethyl]-2-oxopyrrolidin-3-yl}prop-1-ene-1-sulfonamide]"
4,< 200,"C[C@@H](C(=O)N1CCOCC1)N1CC[C@H](NS(=O)(=O)CCc2ccc(Cl)cc2F)C1=O [Example 25, 2-(4-chloro-2-fluorophenyl)-N-{(3S)-1-[(1S)-1-methyl-2-morpholin-4-yl-2-oxoethyl]-2-oxopyrrolidin-3-yl}ethanesulfonamide]"
5,< 10,"COC[C@@H](C(=O)N1CCOCC1)N1CC[C@H](NS(=O)(=O)/C=C(\C)c2ccc(Cl)s2)C1=O [Example 16, (1E)-2-(5-chlorothien-2-yl)-N-{(3S)-1-[(1S)-1-(methoxymethyl)-2-morpholin-4-yl-2-oxoethyl]-2-oxopyrrolidin-3-yl}prop-1-ene-1-sulfonamide]"
6,< 25,"CC[C@H](C)[C@@H](C(=O)N1CCOCC1)N1CC[C@H](NS(=O)(=O)CC(F)(F)c2ccc(Cl)cc2)C1=O [Example 29, 2-(4-chlorophenyl)-2,2-difluoro-N-{(3S)-1-[(1S,2S)-2-methyl-1-(morpholin-4-ylcarbonyl)butyl]-2-oxopyrrolidin-3-yl}ethanesulfonamide]"
7,< 10,"O=C(C[C@@H](C(=O)N1CCOCC1)N1CC[C@H](NS(=O)(=O)CCc2ccc(Cl)s2)C1=O)OCc1ccccc1 [Example 21, Benzyl (3S)-3-[(3S)-3-({[2-(5-chlorothien-2-yl)ethyl]sulfonyl}amino)-2-oxopyrrolidin-1-yl]-4-morpholin-4-yl-4-oxobutanoate]"
8,< 50,"O=C([C@H](c1cccs1)N1CC[C@H](NS(=O)(=O)CCc2ccc(Cl)s2)C1=O)N1CCOCC1 [Example 73, 2-(5-chloro-2-thienyl)-N-{(3S)-1-[(1R)-2-(4-morpholinyl)-2-oxo-1-(2-thienyl)ethyl]-2-oxo-3-pyrrolidinyl}ethanesulfonamide]"
9,< 200,"O=C(C(C1CCOCC1)N1CC[C@H](NS(=O)(=O)CCc2ccc(Cl)s2)C1=O)N1CCOCC1 (stereo partly drawn) [Example 67, 2-(5-chloro-2-thienyl)-N-{(3S)-1-[2-(4-morpholinyl)-2-oxo-1-(tetrahydro-2H-pyran-4-yl)ethyl]-2-oxo-3-pyrrolidinyl}ethanesulfonamide]"
10,< 10,"CO[C@H](C)[C@@H](C(=O)N1CCOCC1)N1CC[C@H](NS(=O)(=O)/C=C(\C)c2ccc(Cl)s2)C1=O [Example 18, (1E)-2-(5-chlorothien-2-yl)-N-{(3S)-1-[(1S,2R)-2-methoxy-1-(morpholin-4-ylcarbonyl)propyl]-2-oxopyrrolidin-3-yl}prop-1-ene-1-sulfonamide]"
11,< 100,"CC[C@@H](C(=O)N1CCOCC1)N1CC[C@H](NS(=O)(=O)CCc2ccc(Cl)cc2)C1=O [Example 6, 2-(4-chlorophenyl)-N-{(3S)-1-[(1S)-1-(morpholin-4-ylcarbonyl)propyl]-2-oxopyrrolidin-3-yl}ethanesulfonamide]"
12,< 100,"COC[C@@H](C(=O)N1CCOCC1)N1CC[C@H](NS(=O)(=O)CC(C)c2ccc(Cl)s2)C1=O (stereo partly drawn) [Example 58, 2-(5-chloro-2-thienyl)-N-{(3S)-1-[(1S)-1-[(methyloxy)methyl]-2-(4-morpholinyl)-2-oxoethyl]-2-oxo-3-pyrrolidinyl}-1-propanesulfonamide]"
13,< 50,"O=C([C@H](Cc1ccncc1)N1CC[C@H](NS(=O)(=O)CCc2ccc(Cl)s2)C1=O)N1CCOCC1 [Example 90, 2-(5-chloro-2-thienyl)-N-{(3S)-1-[(1S)-2-(4-morpholinyl)-2-oxo-1-(4-pyridinylmethyl)ethyl]-2-oxo-3-pyrrolidinyl}ethanesulfonamide]"
14,< 25,"CCOC[C@@H](C(=O)N1CCOCC1)N1CC[C@H](NS(=O)(=O)CCc2ccc(Cl)cn2)C1=O [Example 49, 2-(5-chloro-2-pyridinyl)-N-{(3S)-1-[(1S)-1-[(ethyloxy)methyl]-2-(4-morpholinyl)-2-oxoethyl]-2-oxo-3-pyrrolidinyl}ethanesulfonamide]"
15,< 25,"CCOC[C@@H](C(=O)N1CCOCC1)N1CC[C@H](NS(=O)(=O)CC(C)c2ccc(Cl)s2)C1=O (stereo partly drawn) [Example 59, 2-(5-chloro-2-thienyl)-N-{(3S)-1-[(1S)-1-[(ethyloxy)methyl]-2-(4-morpholinyl)-2-oxoethyl]-2-oxo-3-pyrrolidinyl}-1-propanesulfonamide]"
16,< 10,"C/C(=C\S(=O)(=O)N[C@H]1CCN([C@@H](CC(=O)OCc2ccccc2)C(=O)N2CCOCC2)C1=O)c1ccc(Cl)s1 [Example 22, Benzyl (3S)-3-[(3S)-3-({[(1E)-2-(5-Chlorothien-2-yl)prop-1-enyl]sulfonyl}amino)-2-oxopyrrolidin-1-yl]-4-morpholin-4-yl-4-oxobutanoate]"
17,< 200,"O=C([C@H](Cc1cscn1)N1CC[C@H](NS(=O)(=O)CCc2ccc(Cl)cc2)C1=O)N1CCOCC1 [Example 72, 2-(4-chlorophenyl)-N-{(3S)-1-[(1S)-2-(4-morpholinyl)-2-oxo-1-(1,3-thiazol-4-ylmethyl)ethyl]-2-oxo-3-pyrrolidinyl}ethanesulfonamide]"
18,< 50,"C[C@@H](C(=O)N1CCOCC1)N1CC[C@H](NS(=O)(=O)CC2OCc3cc(Cl)ccc32)C1=O (stereo partly drawn) [Example 66, 1-(5-chloro-1,3-dihydro-2-benzofuran-1-yl)-N-{(3S)-1-[(1S)-1-methyl-2-(4-morpholinyl)-2-oxoethyl]-2-oxo-3-pyrrolidinyl}methanesulfonamide]"
19,< 10,"C/C(=C\S(=O)(=O)N[C@H]1CCN([C@@H](Cc2ccccc2)C(=O)N2CCOCC2)C1=O)c1ccc(Cl)s1 [Example 14, (1E)-N-{(3S)-1-[(1S)-1-benzyl-2-morpholin-4-yl-2-oxoethyl]-2-oxopyrrolidin-3-yl}-2-(5-chlorothien-2-yl)prop-1-ene-1-sulfonamide]"
20,< 50,"CC[C@H](C)[C@@H](C(=O)N1CCOCC1)N1CC[C@H](NS(=O)(=O)CC2CCc3cc(Cl)ccc32)C1=O (stereo partly drawn) [Example 63, 1-(5-chloro-2,3-dihydro-1H-inden-1-yl)-N-{(3S)-1-[(1S,2S)-2-methyl-1-(4-morpholinylcarbonyl)butyl]-2-oxo-3-pyrrolidinyl}methanesulfonamide]"
21,< 10,"O=C([C@H](Cc1ncno1)N1CC[C@H](NS(=O)(=O)CCc2ccc(Cl)s2)C1=O)N1CCOCC1 [Example 77, 2-(5-chloro-2-thienyl)-N-{(3S)-1-[(1S)-2-(4-morpholinyl)-1-(1,2,4-oxadiazol-5-ylmethyl)-2-oxoethyl]-2-oxo-3-pyrrolidinyl}ethanesulfonamide]"
22,< 50,"COC[C@@H](C(=O)N1CCOCC1)N1CC[C@H](N(CC(=O)N(C)C)S(=O)(=O)CCc2ccc(Cl)s2)C1=O [Example 97, N^2-{[2-(5-chloro-2-thienyl)ethyl]sulfonyl}-N^1,N^1-dimethyl-N^2-{(3S)-1-[(1S)-1-[(methyloxy)methyl]-2-(4-morpholinyl)-2-oxoethyl]-2-oxo-3-pyrrolidinyl}glycinamide]"
23,< 25,"CCOC(=O)CN([C@H]1CCN([C@@H](C)C(=O)N2CCOCC2)C1=O)S(=O)(=O)CCc1ccc(Cl)s1 [Example 34, Ethyl N-{[2-(5-chlorothien-2-yl)ethyl]sulfonyl}-N-{(3S)-1-[(1S)-1-methyl-2-morpholin-4-yl-2-oxoethyl]-2-oxopyrrolidin-3-yl}glycinate]"
24,< 50,"O=C(C(c1cccnc1)N1CC[C@H](NS(=O)(=O)CCc2ccc(Cl)s2)C1=O)N1CCOCC1 (mixture of isomers) [Example 92, 2-(5-chloro-2-thienyl)-N-{(3S)-1-[2-(4-morpholinyl)-2-oxo-1-(3-pyridinyl)ethyl]-2-oxo-3-pyrrolidinyl}ethanesulfonamide]"
25,< 200,"COC[C@@H](C(=O)N1CCOCC1)N1CC[C@H](NS(=O)(=O)CCc2ccc(Cl)cn2)C1=O [Example 50, 2-(5-chloro-2-pyridinyl)-N-{(3S)-1-[(1S)-1-[(methyloxy)methyl]-2-(4-morpholinyl)-2-oxoethyl]-2-oxo-3-pyrrolidinyl}ethanesulfonamide]"
26,< 100,"O=C([C@H](CCN1CCOCC1)N1CC[C@H](NS(=O)(=O)CCc2ccc(Cl)s2)C1=O)N1CCOCC1 [Example 95, 2-(5-chloro-2-thienyl)-N-{(3S)-1-[(1S)-3-(4-morpholinyl)-1-(4-morpholinylcarbonyl)propyl]-2-oxo-3-pyrrolidinyl}ethanesulfonamide]"
27,< 100,"C[C@@H](C(=O)N1CCOCC1)N1CC[C@H](NS(=O)(=O)CC2CCc3cc(Cl)ccc32)C1=O (stereo partly drawn) [Example 61, 1-(5-chloro-2,3-dihydro-1H-inden-1-yl)-N-{(3S)-1-[(1S)-1-methyl-2-(4-morpholinyl)-2-oxoethyl]-2-oxo-3-pyrrolidinyl}methanesulfonamide]"
